Source: patent publication US10888567B2, “Inhibitors of tryptophan dioxygenases (IDO1 and TDO) and their use in therapy” (AUCKLAND UNISERVICES LIMITED, priority 2014, dated 2021)

Assays:
[1] = target: Recombinant human IDO1 (rhIDO1) (Homo sapiens (Human), UniProt P14902); test: Enzymatic assay for IDO1 activity; format: biochemical; settings: rhIDO1 9 nM, 80 μM TRP, 37° C. 30 min
Procedure: Recombinant human IDO1 (rhIDO1) was expressed and purified from cultures of EC538 strain of E. coli transformed with pREP4 and pQE9-IDO plasmid. Reaction mixes were set up in 384-well microplates containing 50 mM phosphate buffer, 10 mM ascorbic, 10 μM methylene blue, 100 μg/mL catalase, 80 μM TRP, 0.01% Tween 20 (v/v) mixed with rhIDO1 (15 μL) at a final concentration of 9 nM in a total volume of 30 μL assay medium. The plates were incubated at 37° C. for 30 min, and the enzymatic reaction was terminated by adding piperidine (200 mM) and heated at 65° C. for 20 min. Fluorescence intensity was read at λex 400 nm and λem 500 nm. Test compounds were dissolved in 100% DMSO and pre-diluted in assay medium prior to adding rhIDO1. IDO1 inhibition (%) was calculated as
[formula] All experiments were carried out in triplicates, and statistical Analyses were conducted in Prism v5 (Graphpad Software, Inc., La Jolla, Calif., USA). Cell-Based Assay for IDO1 Inhibition

[2] = target: human IDO1 (LLTC-hIDO1 cells) (Homo sapiens, UniProt P14902); test: Cell-based assay for IDO1 inhibition (kynurenine in supernatant); settings: IDO1-transfected Lewis Lung carcinoma cells, 24 h; read-out: Cellular IC50
Procedure: Culture supernatant from each well was then transferred into a fresh, flat-bottomed 96-well plate, mixed with trichloroacetic acid (10% final concentration) and incubated for 20 min at 60° C. […] The absorbance of each well was read at 480 nm, and the concentration that inhibited 50% cellular enzyme activity was calculated.

[3] = test system: Lewis Lung carcinoma cells transfected to express IDO1 (LLTC-hIDO1); test: MTT cell viability in the cellular IDO1 assay; format: cell-based; settings: same experiment as cellular IDO1 assay
Procedure: The viability of the cells in each well in the same experiment was determined using the 3-(4,5-dimethylthiazolyl-2-yl)-2,5-diphenyltetrazolium bromide (MTT) colourimetric assay. After the removal of the supernatant for determination of IDO1 inhibition, the cells were incubated with MTT (500 μg/mL) until crystal formation was observed. […] DMSO (100 μL/well) was added to dissolve the crystals and then the absorbance in each well was measured at 570 nm. Cell viability in each well was expressed as a percentage of untreated controls. Triplicate cultures were used for all experiments unless stated otherwise.

[4] = target: human TDO (GL261 cells transfected to over-express full length human TDO) (Homo sapiens (Human), UniProt P48775); test: Cell-based assay for TDO inhibition; settings: GL261 cells over-expressing human TDO, 24 h; read-out: Cellular IC50
Procedure: Culture supernatant from each well was then transferred into a fresh, flat-bottomed 96-well plate, and kynurenine content was determined as described above for the IDO1 assay, and the concentration that inhibited 50% cellular enzyme activity was calculated.

[5] = test system: GL261 cells transfected to over-express human TDO; test: MTT cell viability in the cellular TDO assay; format: cell-based; settings: same experiment as cellular TDO assay
Procedure: The viability of the cells in each well in the same experiment was determined using the 3-(4,5-dimethylthiazolyl-2-yl)-2,5-diphenyltetrazolium bromide (MTT) colourimetric assay.

Chain of Recombinant human IDO1 (rhIDO1) (P14902 whole entry): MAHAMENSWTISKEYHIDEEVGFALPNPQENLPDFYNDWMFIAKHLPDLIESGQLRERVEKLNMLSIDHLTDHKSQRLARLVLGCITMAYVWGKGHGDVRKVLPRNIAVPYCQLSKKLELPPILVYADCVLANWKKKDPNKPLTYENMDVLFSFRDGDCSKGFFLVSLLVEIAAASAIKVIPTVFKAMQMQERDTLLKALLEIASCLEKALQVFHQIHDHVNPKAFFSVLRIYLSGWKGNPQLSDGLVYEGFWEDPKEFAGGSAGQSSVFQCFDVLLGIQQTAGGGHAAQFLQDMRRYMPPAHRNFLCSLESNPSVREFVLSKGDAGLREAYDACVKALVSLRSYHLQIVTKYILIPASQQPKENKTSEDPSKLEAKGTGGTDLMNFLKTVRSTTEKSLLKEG
Chain of human TDO (GL261 cells transfected to over-express full length human TDO) (P48775 whole entry): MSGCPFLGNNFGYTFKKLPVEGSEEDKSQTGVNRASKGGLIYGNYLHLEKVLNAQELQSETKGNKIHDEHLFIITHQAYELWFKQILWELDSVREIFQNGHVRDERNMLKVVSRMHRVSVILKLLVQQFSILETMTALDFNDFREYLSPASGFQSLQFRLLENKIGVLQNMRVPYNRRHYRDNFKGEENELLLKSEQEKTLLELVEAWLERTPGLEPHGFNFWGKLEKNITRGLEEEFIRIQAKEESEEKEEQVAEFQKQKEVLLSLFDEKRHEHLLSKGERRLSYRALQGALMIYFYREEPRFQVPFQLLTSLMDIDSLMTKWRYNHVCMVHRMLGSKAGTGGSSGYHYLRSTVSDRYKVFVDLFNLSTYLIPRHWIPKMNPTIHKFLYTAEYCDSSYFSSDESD

IC50 [1] [µM] | IC50 [2] [µM] | IC50 [3] [µM] | IC50 [4] [µM] | SMILES | IC50 [5] [µM]
> 100 | 10 to 100 | > 100 | 10 to 100 | Nc1noc2nc(Oc3ccc(OC(F)(F)F)cc3)ccc12 [Compound 89, 6-(4-(Trifluoromethoxy)phenoxy)isoxazolo[5,4-b]pyridin-3-amine] | > 100
1 to 10 | < 1 | > 100 | < 1 | Nc1noc2nc(Cl)ccc12 [Compound 11, 6-Chloroisoxazolo[5,4-b]pyridin-3-amine] | > 100
1 to 10 | < 1 | > 100 | 1 to 10 | Cc1nc2onc(N)c2c(C)c1Cl [Compound 3, 5-Chloro-4,6-dimethylisoxazolo[5,4-b]pyridin-3-amine] | > 100
> 100 | 10 to 100 | > 100 |  | Nc1noc2ncccc12 [Compound 2, Isoxazolo[5,4-b]pyridin-3-amine] | 
< 1 | < 1 | > 100 | < 1 | Nc1noc2nc(Cl)c(F)cc12 [Compound 66, 6-Chloro-5-fluoroisoxazolo[5,4-b]pyridin-3-amine] | > 100
> 100 | 1 to 10 | > 100 |  | COc1cccc(Nc2ccc3c(N)noc3n2)c1 [Compound 95, N^6-(3-Methoxyphenyl)isoxazolo[5,4-b]pyridine-3,6-diamine] | 
10 to 100 | < 1 | > 100 |  | Nc1noc2ncc(Br)cc12 [Compound 6, 5-Bromoisoxazolo[5,4-b]pyridin-3-amine] | 
10 to 100 | 1 to 10 | > 100 |  | Cc1cc(C)c2c(N)noc2n1 [Compound 4, 4,6-Dimethylisoxazolo[5,4-b]pyridin-3-amine] | 
> 100 | 10 to 100 | > 100 |  | CCOC(=O)c1cc2c(N)noc2nc1C(F)F [Compound 54, Ethyl 3-amino-6-(difluoromethyl)isoxazolo[5,4-b]pyridine-5-carboxylate] | 
< 1 | < 1 | > 100 |  | Cc1cc(Cl)nc2onc(N)c12 [Compound 42, 6-Chloro-4-methylisoxazolo[5,4-b]pyridin-3-amine] | 
> 100 | > 100 | > 100 |  | Nc1noc2nc(OCCN3CCOCC3)ccc12 [Compound 78, 6-(2-Morpholinoethoxy)isoxazolo[5,4-b]pyridin-3-amine] | 
